Measured values published in PubChem BioAssay (NCI).
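Tested at 5 concentrations; 48 h exposure; 96-well plates; endpoints linearly interpolated, else capped at highest concentration. TGI marks complete inhibition of growth.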

Experiments:
Assay in all cases: growth of human tumour cells (NCI), 48 h
HT29 colon = system: HT29 colon
HOP-62 NSCLC = system: HOP-62 NSCLC
NCI-H23 lung = system: NCI-H23 lung
NCI-H226 lung = system: NCI-H226 lung
HCT-15 colon = system: HCT-15 colon
DLD-1 colon = system: DLD-1 colon
OVCAR-4 ovarian = system: OVCAR-4 ovarian
DMS 273 small cell lung = system: DMS 273 small cell lung
RXF 393 renal = system: RXF 393 renal
IGROV1 ovarian = system: IGROV1 ovarian
HCC-2998 colon = system: HCC-2998 colon
SF-268 CNS = system: SF-268 CNS
U251 CNS = system: U251 CNS
SK-OV-3 ovarian = system: SK-OV-3 ovarian
LXFL 529 NSCLC = system: LXFL 529 NSCLC
OVCAR-5 ovarian = system: OVCAR-5 ovarian
MALME-3M melanoma = system: MALME-3M melanoma
SNB-19 CNS = system: SNB-19 CNS
UACC-257 melanoma = system: UACC-257 melanoma
OVCAR-3 ovarian = system: OVCAR-3 ovarian
HOP-92 NSCLC = system: HOP-92 NSCLC
EKVX NSCLC = system: EKVX NSCLC
HOP-18 NSCLC = system: HOP-18 NSCLC
KM20L2 colon = system: KM20L2 colon
SN12C renal = system: SN12C renal
HCT-116 colon = system: HCT-116 colon
LOX IMVI melanoma = system: LOX IMVI melanoma
UACC-62 melanoma = system: UACC-62 melanoma
COLO 205 colon = system: COLO 205 colon
786-0 renal = system: 786-0 renal
A549 NSCLC = system: A549 NSCLC
SK-MEL-5 melanoma = system: SK-MEL-5 melanoma
SNB-75 CNS = system: SNB-75 CNS
CCRF-CEM leukemia = system: CCRF-CEM leukemia
CAKI-1 renal = system: CAKI-1 renal
SF-539 CNS = system: SF-539 CNS
RPMI-8226 leukemia = system: RPMI-8226 leukemia
UO-31 renal = system: UO-31 renal
M19-MEL melanoma = system: M19-MEL melanoma
SNB-78 CNS = system: SNB-78 CNS
HL-60(TB) leukemia = system: HL-60(TB) leukemia
KM12 colon = system: KM12 colon
OVCAR-8 ovarian = system: OVCAR-8 ovarian
M14 melanoma = system: M14 melanoma
ACHN renal = system: ACHN renal
SW-620 colon = system: SW-620 colon
TK-10 renal = system: TK-10 renal
A498 renal = system: A498 renal
K-562 leukemia = system: K-562 leukemia
SK-MEL-2 melanoma = system: SK-MEL-2 melanoma
NCI-H460 lung = system: NCI-H460 lung
NCI-H522 lung = system: NCI-H522 lung
SR leukemia = system: SR leukemia
SF-295 CNS = system: SF-295 CNS
SK-MEL-28 melanoma = system: SK-MEL-28 melanoma
MOLT-4 leukemia = system: MOLT-4 leukemia
DMS 114 small cell lung = system: DMS 114 small cell lung

## CC(=O)O[C@]1(C)CCC2C(C)C(=O)OC2C2C(C)[C@@H](O)CC21 (stereo not given in full)
HT29 colon
  TGI: > 100 µM
HOP-62 NSCLC
  TGI: 45.2 µM
NCI-H23 lung
  TGI: > 100 µM
NCI-H226 lung
  TGI: > 100 µM
HCT-15 colon
  TGI: 32.5 µM
DLD-1 colon
  TGI: > 100 µM
OVCAR-4 ovarian
  TGI: > 100 µM
DMS 273 small cell lung
  TGI: 54.5 µM
RXF 393 renal
  TGI: 82.5 µM
IGROV1 ovarian
  TGI: > 100 µM
HCC-2998 colon
  TGI: 58 µM
SF-268 CNS
  TGI: > 100 µM
U251 CNS
  TGI: > 100 µM
SK-OV-3 ovarian
  TGI: > 100 µM
LXFL 529 NSCLC
  TGI: 59 µM
OVCAR-5 ovarian
  TGI: > 100 µM
MALME-3M melanoma
  TGI: > 100 µM
SNB-19 CNS
  TGI: > 100 µM
UACC-257 melanoma
  TGI: > 100 µM
OVCAR-3 ovarian
  TGI: 47.3 µM
HOP-92 NSCLC
  TGI: 91.3 µM
EKVX NSCLC
  TGI: > 100 µM
HOP-18 NSCLC
  TGI: > 100 µM
KM20L2 colon
  TGI: 71.2 µM
SN12C renal
  TGI: > 100 µM
HCT-116 colon
  TGI: 50.8 µM
LOX IMVI melanoma
  TGI: 34.2 µM
UACC-62 melanoma
  TGI: 89.5 µM
COLO 205 colon
  TGI: 36.2 µM
786-0 renal
  TGI: > 100 µM
A549 NSCLC
  TGI: > 100 µM
SK-MEL-5 melanoma
  TGI: 89.7 µM
SNB-75 CNS
  TGI: > 100 µM
CCRF-CEM leukemia
  TGI: > 100 µM
CAKI-1 renal
  TGI: > 100 µM
SF-539 CNS
  TGI: > 100 µM
RPMI-8226 leukemia
  TGI: 60.1 µM
UO-31 renal
  TGI: > 100 µM
M19-MEL melanoma
  TGI: 57.4 µM
SNB-78 CNS
  TGI: > 100 µM
HL-60(TB) leukemia
  TGI: 34.2 µM
KM12 colon
  TGI: > 100 µM
OVCAR-8 ovarian
  TGI: > 100 µM
M14 melanoma
  TGI: 47.9 µM
ACHN renal
  TGI: > 100 µM
SW-620 colon
  TGI: 31.2 µM
TK-10 renal
  TGI: > 100 µM
A498 renal
  TGI: > 100 µM
K-562 leukemia
  TGI: 54.9 µM
SK-MEL-2 melanoma
  TGI: 58.3 µM
NCI-H460 lung
  TGI: > 100 µM
NCI-H522 lung
  TGI: 34.4 µM
SR leukemia
  TGI: > 100 µM
SF-295 CNS
  TGI: > 100 µM
SK-MEL-28 melanoma
  TGI: > 100 µM

## Cc1ccc(-c2cc(=O)c3cc4c(cc3[nH]2)OCO4)cc1
HT29 colon
  TGI: > 100 µM
HOP-62 NSCLC
  TGI: 20.5 µM
NCI-H23 lung
  TGI: 3.29 µM
NCI-H226 lung
  TGI: 8.66 µM
HCT-15 colon
  TGI: 6.64 µM
DLD-1 colon
  TGI: > 100 µM
OVCAR-4 ovarian
  TGI: > 100 µM
DMS 273 small cell lung
  TGI: > 25 µM
RXF 393 renal
  TGI: 9.94 µM
MOLT-4 leukemia
  TGI: > 42.6 µM
IGROV1 ovarian
  TGI: > 100 µM
HCC-2998 colon
  TGI: 5.56 µM
SF-268 CNS
  TGI: > 72.1 µM
U251 CNS
  TGI: 10.5 µM
SK-OV-3 ovarian
  TGI: 28.9 µM
LXFL 529 NSCLC
  TGI: 21.8 µM
OVCAR-5 ovarian
  TGI: > 82.3 µM
MALME-3M melanoma
  TGI: > 33.4 µM
SNB-19 CNS
  TGI: > 100 µM
UACC-257 melanoma
  TGI: > 100 µM
DMS 114 small cell lung
  TGI: > 100 µM
OVCAR-3 ovarian
  TGI: > 100 µM
HOP-92 NSCLC
  TGI: 71.2 µM
EKVX NSCLC
  TGI: > 100 µM
HOP-18 NSCLC
  TGI: 35.2 µM
KM20L2 colon
  TGI: 3.43 µM
SN12C renal
  TGI: > 100 µM
HCT-116 colon
  TGI: > 100 µM
LOX IMVI melanoma
  TGI: > 100 µM
UACC-62 melanoma
  TGI: > 39.1 µM
786-0 renal
  TGI: 14.6 µM
A549 NSCLC
  TGI: > 63.4 µM
SK-MEL-5 melanoma
  TGI: 5.6 µM
SNB-75 CNS
  TGI: 35 µM
CCRF-CEM leukemia
  TGI: > 100 µM
CAKI-1 renal
  TGI: > 100 µM
SF-539 CNS
  TGI: 4.54 µM
RPMI-8226 leukemia
  TGI: > 100 µM
UO-31 renal
  TGI: > 100 µM
M19-MEL melanoma
  TGI: > 100 µM
HL-60(TB) leukemia
  TGI: 2.77 µM
KM12 colon
  TGI: > 100 µM
OVCAR-8 ovarian
  TGI: > 100 µM
M14 melanoma
  TGI: > 22 µM
ACHN renal
  TGI: > 100 µM
SW-620 colon
  TGI: > 100 µM
TK-10 renal
  TGI: > 60.6 µM
A498 renal
  TGI: 10.5 µM
K-562 leukemia
  TGI: > 100 µM
SK-MEL-2 melanoma
  TGI: 14.2 µM
NCI-H460 lung
  TGI: 3.82 µM
NCI-H522 lung
  TGI: 4.83 µM
SR leukemia
  TGI: > 40.4 µM
SF-295 CNS
  TGI: 11.6 µM
SK-MEL-28 melanoma
  TGI: > 100 µM
